Experimental findings from patent US20040132811A1, “Methods and products for inhibiting growth of fungal pathogens on turfgrass” (priority 2003, published 2004) are described below.

Entries after “also recorded” stand apart in the source; their conditions may differ.

The test relates to anthracnose on bentgrass. The experiment in a line: Evaluation of fungicides for control of anthracnose on bentgrass putting greens (field test). The class given is in vivo, Colletotrichum graminicola. An excerpt: The test was established on the 16th green at the Fianna Hills Country Club in Fort Smith, Ark. The green is more than 20 years old and was maintained at 0.156-inch mowing height and with other standard practices used at Fianna Hills. The design was a randomized complete block with 20 treatments and four replications. Individual plots were 4 feet×5 feet and isolated with a spray shield during applications. Treatments were applied on approximate 14- or 28-day schedules. Actual dates of applications were 31 May, 13 Jun., 27 Jun., 12 Jul., 26 Jul., and 9 Aug., all in 2002. Treatments were applied at 4 gal/1000 sq ft using a hand-held CO2-powered sprayer at 20 psi with a TeeJet 8004VS spray tip. The amount of active ingredient per 1000 square feet for each fungicide is provided in Table I. The C3 biocontrol is a strain of Lysobacter enzymogenes that was supplied by Dr. Gary Yuen from the University of Nebraska. The MX 567 active ingredient was first dissolved in acetone and then diluted with water. Treatments were evaluated by recording disease incidence, disease intensity, and turf quality.

[1] abbreviates: 2 Aug, 2.5 g ai + .05% Tween per 1000 sq ft, days 0, 13, 27, 42, 56, 70.
Where [2] appears, read: 19 Aug, 2.5 g ai + .05% Tween per 1000 sq ft, days 0, 13, 27, 42, 56, 70.

As for `C[C@H](COc1cc(F)ccc1F)NC(=O)C(C#N)C(C)(C)C` (stereo in doubt) [MX 567, rel-2-cyano-N-[(1R)-2-(2,5-difluorophenoxy)-1-methylethyl]-3,3-dimethylbutanamide], under setting [1], the “Incidence (%) of plot area with anthracnose symptoms” value (“Incidence (%) of plot area” for short) is reported as 23%, the “Intensity (0 = no disease to 4 = dead)” value came out at 1.0 and the “Severity (incidence × intensity)” value amounted to 23. Also, under “16 Jul, 2.5 g ai + .05% Tween per 1000 sq ft, days 0, 13, 27, 42, 56, 70”, the “Incidence (%) of plot area” value is 21%. For the same compound, under setting [2], the “Incidence (%) of plot area” value was determined as 29%; the “Intensity (0 = no disease to 4 = dead)” value is 1.0; the “Severity (incidence × intensity)” value is recorded as 29; the “Turf quality (0-9 rating scale: 0 = all dead, 9 = excellent)” value is recorded as 6.3. For the setting “26 Jul, 2.5 g ai + .05% Tween per 1000 sq ft, days 0, 13, 27, 42, 56, 70”, the “Incidence (%) of plot area” value was 2%. The “turf quality, in words” value (summary of Table I) is listed as “increases in turf quality; also recorded: highest turf quality”. The “disease severity, in words” value (summary of Table I versus nontreated checks) is on record as “significant reductions in disease severity”.
